Source: patent US20040053407A1, “Method for in vitro culture of ovarian follicles” (priority 2000, published 2004)

Tested on: secondary follicles (folliculogenesis)
Assay: In vitro follicle culture testing the influence of taxol on folliculogenesis and oocyte maturation
Type: cell-based, mouse
Conditions: secondary follicles scored after 13 days
From the text: Ovarian tissue is isolated from 12 to 14 days old F1 hybrids C57Bl/j6×CBAca mice and kept in a culture dish comprising Leibovitz's L15 medium with GlutaMAX I™ (Gibco BRL 31415-029) with 10% HIA FBS (Heat Inactivated Foetal Bovine Serum) and 0.1% penicillin-streptomycin-mix (Gibco BRL 3032908). The ovaries have to be freed of oviduct and fat.
Not all follicles in suspension from example 1 are suitable for follicle culture. To make sure that all follicles grow at approximately the same rate, the selected follicles should have a similar diameter. In this specific case, a diameter of between 100 and 130 μm is suitable and points to development of the follicle up to the early preantral (secondary) stage. […] FIG. 2b. Said follicles further comprise theca-interstitial cells 17, a basal membrane 19 and a zona pellucida 21. Follicles are observed under a stereomicroscope and measured under an inverted microscope. Suitable follicles are picked up using suitably arranged pasteur pipettes and transferred to a cryovial (for stocking, see example 3) or to a culture plate (for follicle culture, see example 4).
When starting from secondary follicles, one can start immediately with culture using the second medium. This medium will promote adhesion to the culture recipient surface. Culture medium is refreshed every four days. On day 12, the culture medium is refreshed using the third medium in stead of the second. This medium will cause the release of a mucified oocyte-cumulus complex from the follicle overnight, while the oocyte finalises maturation.
Cultures are done in 75 μl of culture medium. When refreshing medium, 30 μl of used medium is removed and 30 μl of fresh medium is added. Schematically, both procedures can be summarised as follows:
The same method is used as in example 4. Secondary follicles are used. […] All media used in the culture steps are constituted as follows:
The culture medium is refreshed every 4 days by removing 30 μl and addition of 30 μl of fresh medium.
After 13 days, follicles are scored on survival, mucification, presence of polar body (PB), and oocyte diameter.

[1] = Taxol 0.01 nM in all media (plates 3+4)
[2] = Taxol 0.1 nM in all media (plates 5+6)
[3] = Taxol 1 nM in all media (plates 7+8)
[4] = Taxol 10 nM in all media (plate 9)

## CC(=O)O[C@H]1C(=O)[C@@]2(C)[C@H]([C@H](OC(=O)c3ccccc3)[C@]3(O)C[C@H](OC(=O)[C@H](O)[C@@H](NC(=O)c4ccccc4)c4ccccc4)C(C)=C1C3(C)C)[C@]1(OC(C)=O)CO[C@@H]1C[C@@H]2O [Taxol]
[1]
  Mucification mean: 100%
  PB (presence of polar body) mean: 75%
  Survival mean: 87%
[2]
  Mucification mean: 96%
  PB (presence of polar body) mean: 75%
  Survival mean: 100%
[3]
  Mucification mean: 96%
  PB (presence of polar body) mean: 55%
  Survival mean: 92%
[4]
  Mucification mean: 0
  PB (presence of polar body) mean: 0
  Survival mean: 0%
